Laboratory results from patent US20240043439A1, “COMPOUNDS AS C5AR INHIBITORS” (Kira Pharmaceuticals (Suzhou) Ltd., priority 2020, published 2024).

What was measured:
C5aR = C5aR (Homo sapiens (Human), UniProt P21730); experiment: Calcium mobilization (U937/C5aR or HEK293/C5aR cells, FLIPR); format: cell-based; details: agonist human C5a at EC80, FLIPR
Summary of the method: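 FLIPR calcium-flux read-out using Fluo-4 Direct-loaded C5aR-expressing U937 or HEK293 cells stimulated with human C5a at its EC80. Compound was applied for 60 min before dye loading (50 min at 37 °C plus 10 min at room temperature) and agonist addition.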

[1] = target: human C5a receptor (C5aR) (Homo sapiens (Human), UniProt P21730); experiment: Inhibition of C5a-C5aR binding (biotinylated human C5a, U937/C5aR cells, FACS)
human C5a receptor (C5aR), sequence (P21730 whole entry): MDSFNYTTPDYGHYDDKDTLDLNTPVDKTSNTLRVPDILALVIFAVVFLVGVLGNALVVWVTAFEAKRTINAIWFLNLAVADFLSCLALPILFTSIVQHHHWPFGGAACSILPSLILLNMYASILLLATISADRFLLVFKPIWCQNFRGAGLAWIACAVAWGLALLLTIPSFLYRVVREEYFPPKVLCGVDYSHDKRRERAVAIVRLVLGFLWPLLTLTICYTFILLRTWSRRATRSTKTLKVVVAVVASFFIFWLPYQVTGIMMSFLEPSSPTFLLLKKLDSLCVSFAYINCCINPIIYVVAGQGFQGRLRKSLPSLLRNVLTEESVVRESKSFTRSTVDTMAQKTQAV
Summary of the method: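 Binding read by flow cytometry as FITC-streptavidin signal (30 min on ice) on washed cells after a 120 min on-ice incubation of compound with biotinylated human C5a (30 nM working solution). Cells used were C5aR-transfected U937, suspended at 3×10^6 cells/ml in PBS containing 0.1% BSA.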

C5aR, sequence (P21730 whole entry): as above

IC50 (C5aR) [nM] | IC50 [1] [nM] | SMILES
> 10000 | 2000 to 5000 | Cc1ccc(NC(=O)C2C[C@H]3CCC[C@H]3N(C(=O)c3cn(C)cn3)C2c2ccc(NC3CCCC3)cc2)cc1C(F)(F)F (relative stereo) [Compound 113, cis-2-(4-(cyclopentylamino)phenyl)-1-(1-methyl-1H-imidazole-4-carbonyl)-N-(4-methyl-3-(trifluoromethyl)phenyl)octahydro-1H-cyclopenta[b]pyridine-3-carboxamide]
500 to 2000 | < 50 | Cc1ccc(NC(=O)[C@H]2C[C@H]3CCC[C@H]3N(C(=O)c3c(C)cccc3F)[C@H]2c2ccc(NC3CCCC3)cc2)cn1 (racemic) [Compound 63, cis-2-(4-(cyclopentylamino)phenyl)-1-(2-fluoro-6-methylbenzoyl)-N-(6-methylpyridin-3-yl)octahydro-1H-cyclopenta[b]pyridine-3-carboxamide]
2000 to 10000 | < 50 | Cc1cccc(F)c1C(=O)N1[C@@H]2CCC[C@@H]2C[C@H](C(=O)Nc2ccc3c(c2)OCCO3)[C@@H]1c1ccc(NC2CCCC2)cc1 (racemic) [Compound 71, cis-2-(4-(cyclopentylamino)phenyl)-N-(2,3-dihydrobenzo[b][1,4]dioxin-6-yl)-1-(2-fluoro-6-methylbenzoyl)octahydro-1H-cyclopenta[b]pyridine-3-carboxamide]
2000 to 10000 | 2000 to 5000 | Cc1cccc(F)c1C(=O)N1C2COC[C@@H]2C[C@H](C(=O)Nc2ccccc2)[C@@H]1c1ccc(NC2CCOCC2)cc1 (relative stereo) [Compound 129, cis-1-(2-fluoro-6-methylbenzoyl)-N-phenyl-2-(4-((tetrahydro-2H-pyran-4-yl)amino)phenyl)octahydrofuro[3,4-b]pyridine-3-carboxamide]
2000 to 10000 | 2000 to 5000 | Cc1cccc(F)c1C(=O)N1[C@@H]2CCC[C@@H]2C[C@H](C(=O)Nc2ccc(F)c(C(F)(F)F)c2)[C@@H]1c1ccc(NC2CCCC2)cc1 (relative stereo) [Compound 61, cis-2-(4-(cyclopentylamino)phenyl)-N-(4-fluoro-3-(trifluoromethyl)phenyl)-1-(2-fluoro-6-methylbenzoyl)octahydro-1H-cyclopenta[b]pyridine-3-carboxamide]
2000 to 10000 | 2000 to 5000 | Cc1cccc(F)c1C(=O)N1[C@@H]2CCC[C@@H]2C[C@H](C(=O)NC2CCOCC2)[C@@H]1c1ccc(NC2CCCC2)cc1 [Compound 52, (2R,3S,4aR,7aR)-2-(4-(cyclopentylamino)phenyl)-1-(2-fluoro-6-methylbenzoyl)-N-(tetrahydro-2H-pyran-4-yl)octahydro-1H-cyclopenta[b]pyridine-3-carboxamide]
500 to 2000 | 2000 to 5000 | Cc1cccc(F)c1C(=O)N1[C@@H]2CCC[C@@H]2C[C@H](C(=O)Nc2ccc(NC=O)c(O)c2)[C@@H]1c1ccc(NC2CCCC2)cc1 (racemic) [Compound 68, cis-2-(4-(cyclopentylamino)phenyl)-1-(2-fluoro-6-methylbenzoyl)-N-(4-formamido-3-hydroxyphenyl)octahydro-1H-cyclopenta[b]pyridine-3-carboxamide]
2000 to 10000 | 2000 to 5000 | Cc1cccc(F)c1C(=O)N1C2CCC[C@@H]2C[C@H](C(=O)Nc2ccnc(C(F)(F)F)c2)[C@@H]1c1ccc(NC2CCCC2)cc1 (relative stereo) [Compound 79, cis-2-(4-(cyclopentylamino)phenyl)-1-(2-fluoro-6-methylbenzoyl)-N-(2-(trifluoromethyl)pyridin-4-yl)octahydro-1H-cyclopenta[b]pyridine-3-carboxamide]
> 10000 | 2000 to 5000 | Cc1ccc(NC(=O)[C@H]2CCCN(S(=O)(=O)c3cccc(F)c3C)[C@H]2c2ccc(NC3CCCC3)cc2)cc1C(F)(F)F [Compound 18, (2R,3S)-1-((3-fluoro-2-methylphenyl)sulfonyl)-2-(4-(cyclopentylamino)phenyl)-N-(4-methyl-3-(trifluoromethyl)phenyl)piperidine-3-carboxamide]
> 10000 | 2000 to 5000 | Cc1ccc(NC(=O)[C@H]2CCCN(S(=O)(=O)c3cccc(Cl)c3C)[C@H]2c2ccc(NC3CCCC3)cc2)cc1C(F)(F)F [Compound 16, (2R,3S)-1-((3-chloro-2-methylphenyl)sulfonyl)-2-(4-(cyclopentylamino)phenyl)-N-(4-methyl-3-(trifluoromethyl)phenyl)piperidine-3-carboxamide]
2000 to 10000 | 500 to 2000 | Cc1ccc(NC(=O)[C@H]2CCCN(S(=O)(=O)c3c(C)cccc3C)[C@H]2c2ccc(NC3CCCC3)cc2)cc1C(F)(F)F [Compound 11, (2R,3S)-2-(4-(cyclopentylamino)phenyl)-1-((2,6-dimethylphenyl)sulfonyl)-N-(4-methyl-3-(trifluoromethyl)phenyl)piperidine-3-carboxamide]
2000 to 10000 | 50 to 500 | Cc1cccc(F)c1C(=O)N1[C@@H]2CCC[C@@H]2C[C@H](C(=O)Nc2ccc3ncsc3c2)[C@@H]1c1ccc(NC2CCCC2)cc1 (racemic) [Compound 69, cis-N-(benzo[d]thiazol-6-yl)-2-(4-(cyclopentylamino)phenyl)-1-(2-fluoro-6-methylbenzoyl)octahydro-1H-cyclopenta[b]pyridine-3-carboxamide]
2000 to 10000 | 2000 to 5000 | Cc1cccc(F)c1C(=O)N1C2COC[C@@H]2C[C@H](C(=O)Nc2ccc(N(C)C)cc2)[C@@H]1c1ccc(NC2CCOCC2)cc1 (mixture of isomers) [Compound 136, cis-N-(4-(dimethylamino)phenyl)-1-(2-fluoro-6-methylbenzoyl)-2-(4-((tetrahydro-2H-pyran-4-yl)amino)phenyl)octahydrofuro[3,4-b]pyridine-3-carboxamide]

More lines, now with the values behind:

SMILES | IC50 (C5aR) [nM] | IC50 [1] [nM]
Cc1ccc(S(=O)(=O)N2CCC[C@H](C(=O)Nc3ccc(C)c(C(F)(F)F)c3)[C@@H]2c2ccc(NC3CCCC3)cc2)c(C)c1 [Compound 9, (2R,3S)-2-(4-(cyclopentylamino)phenyl)-1-((2,4-dimethylphenyl)sulfonyl)-N-(4-methyl-3-(trifluoromethyl)phenyl)piperidine-3-carboxamide] | 2000 to 10000 | 2000 to 5000
Cc1ccc(NC(=O)[C@H]2CCCN(S(=O)(=O)c3ccccc3OC(F)(F)F)[C@H]2c2ccc(NC3CCCC3)cc2)cc1C(F)(F)F [Compound 24, (2R,3S)-2-(4-(cyclopentylamino)phenyl)-N-(4-methyl-3-(trifluoromethyl)phenyl)-1-((2-(trifluoromethoxy)phenyl)sulfonyl)piperidine-3-carboxamide] | > 10000 | 2000 to 5000
Cc1ccc(NC(=O)[C@H]2CCCN(C(=O)c3c(C)noc3C)[C@H]2c2ccc(NC3CCCC3)cc2)cc1C(F)(F)F [Compound 190, (2R,3S)-2-(4-(cyclopentylamino)phenyl)-1-(3,5-dimethylisoxazole-4-carbonyl)-N-(4-methyl-3-(trifluoromethyl)phenyl)piperidine-3-carboxamide] | 2000 to 10000 | 500 to 2000
COc1ccccc1S(=O)(=O)N1CCC[C@H](C(=O)Nc2ccc(C)c(C(F)(F)F)c2)[C@@H]1c1ccc(NC2CCCC2)cc1 [Compound 23, (2R,3S)-2-(4-(cyclopentylamino)phenyl)-1-((2-methoxyphenyl)sulfonyl)-N-(4-methyl-3-(trifluoromethyl)phenyl)piperidine-3-carboxamide] | 2000 to 10000 | 2000 to 5000
Cc1ccc(NC(=O)[C@H]2CCCN(c3ccncn3)[C@H]2c2ccc(NC3CCCC3)cc2)cc1C(F)(F)F [Compound 4, (2R,3S)-2-(4-(cyclopentylamino)phenyl)-N-(4-methyl-3-(trifluoromethyl)phenyl)-1-(pyrimidin-4-yl)piperidine-3-carboxamide] | 2000 to 10000 | 2000 to 5000
Cc1ccc(NC(=O)[C@H]2CCCN(S(=O)(=O)c3ccccc3C)[C@H]2c2ccc(NC3CCCC3)cc2)cc1C(F)(F)F [Compound 22, (2R,3S)-2-(4-(cyclopentylamino)phenyl)-N-(4-methyl-3-(trifluoromethyl)phenyl)-1-(o-tolylsulfonyl)piperidine-3-carboxamide] | > 10000 | 500 to 2000
Cc1ccc(NC(=O)[C@@H]2CCCN(c3ncnc4cccnc34)[C@H]2c2ccc(NC3CCCC3)cc2)cc1C(F)(F)F [Compound 7, (2R,3R)-2-(4-(cyclopentylamino)phenyl)-N-(4-methyl-3-(trifluoromethyl)phenyl)-1-(pyrido[3,2-d]pyrimidin-4-yl)piperidine-3-carboxamide] | 2000 to 10000 | 2000 to 5000
Cc1ccc(C)c(S(=O)(=O)N2CCC[C@H](C(=O)Nc3ccc(C)c(C(F)(F)F)c3)[C@@H]2c2ccc(NC3CCCC3)cc2)c1 [Compound 10, (2R,3S)-2-(4-(cyclopentylamino)phenyl)-1-((2,5-dimethylphenyl)sulfonyl)-N-(4-methyl-3-(trifluoromethyl)phenyl)piperidine-3-carboxamide] | > 10000 | 500 to 2000
Cc1cc(C)c(S(=O)(=O)N2CCC[C@H](C(=O)Nc3ccc(C)c(C(F)(F)F)c3)[C@@H]2c2ccc(NC3CCCC3)cc2)c(C)c1 [Compound 13, (2R,3S)-2-(4-(cyclopentylamino)phenyl)-1-(mesitylsulfonyl)-N-(4-methyl-3-(trifluoromethyl)phenyl)piperidine-3-carboxamide] | 2000 to 10000 | 2000 to 5000
Cc1ccc(NC(=O)[C@H]2CCCN(S(=O)(=O)c3ccccc3C(F)(F)F)[C@H]2c2ccc(NC3CCCC3)cc2)cc1C(F)(F)F [Compound 28, (2R,3S)-2-(4-(cyclopentylamino)phenyl)-N-(4-methyl-3-(trifluoromethyl)phenyl)-1-((2-(trifluoromethyl)phenyl)sulfonyl)piperidine-3-carboxamide] | 2000 to 10000 | 2000 to 5000
